Source: paper PMC6264278, “Corydaline Inhibits Multiple Cytochrome P450 and UDP-Glucuronosyltransferase Enzyme Activities in Human Liver Microsomes” (Molecules, 2011)
Read-outs that look alike come from different tables or passages of the source.

Experiments:
Assay type in all cases: in vitro ADME
CYP3A [1] = assay: Time- and concentration-dependent inactivation of CYP3A-mediated midazolam hydroxylation in human liver microsomes; conditions: probe midazolam (1'-hydroxylation), estimated from kobs vs corydaline concentration (10-150 μM)
Procedure: The inhibitory effects of corydaline toward seven major human CYP isoforms and four major human UGT isoforms were evaluated using cocktail CYP probe substrates and each UGT probe substrate in human liver microsomes, respectively. […] To determine whether midazolam metabolism is inhibited by corydaline, we performed time- and concentration-dependent inactivation assays in human liver microsomes. […] Values for kobs were plotted against corydaline concentration and used for estimation of maximal rates (kinact) and Ki values in human liver microsomes (Figure 2b).

CYP3A [2] = biological target: T1, CYP3A (Homo sapiens, UniProt P08684); assay: CYP3A midazolam 1'-hydroxylation inhibition, cocktail assay in pooled human liver microsomes; conditions: 2.5 μM midazolam
T1 construct: using pooled human liver microsomes; tissue BD Gentest Co. H161; host or cells: pooled human liver microsomes
Procedure: (§1) Phenacetin O-deethylase, coumarin 7-hydroxylase, amodiaquine N-deethylase, diclofenac 4-hydroxylase, S-mephenytoin 4-hydroxylase, bufuralol hydroxylase, and midazolam 1’-hydroxylase activities were determined as probe activities for CYP1A2, CYP2A6, CYP2C8, CYP2C9, CYP2C19, CYP2D6, and CYP3A4, respectively, using cocktail incubation and liquid chromatography-tandem mass spectrometry (LC/MS/MS). The incubation mixtures were prepared in a total volume of 200 μL, as follows: pooled human liver microsomes (0.25 mg/mL), 1.3 mM NADPH, 3.3 mM MgCl2, 50 mM potassium phosphate buffer (pH 7.4), and a cocktail of probe substrates and various concentrations of corydaline (1−200 μM). The substrates were used at concentrations approximately equal to their respective Km values: 50 μM phenacetin, 2.5 μM coumarin, 2.5 μM amodiaquine, 10 μM diclofenac, 100 μM S-mephenytoin, 5 μM bufuralol, and 2.5 μM midazolam. After a 3-min pre-incubation period at 37 °C, the reactions were initiated by addition of an NADP generating system and incubated for 20 min at 37 °C in a shaking water bath. After incubation, the reaction was stopped by placement of the tubes on ice and addition of 100 μL of ice-cold methanol containing internal standards (^13C2,^15N-acetaminophen for acetaminophen and N-desethylamodiaquine, d5-7-hydroxycoumarin for 7-hydroxycoumarin, ^13C6-4-hydroxydiclofenac for 4-hydroxydiclofenac, d3-4-hydroxy-mephenytoin for 4-hydroxymephenytoin and hydroxymidazolam, d9-1-hydroxybufuralol for 1-hydroxybufuralol). The incubation mixtures were then centrifuged at 13,000 × g for 5 min. All incubations were performed in triplicate and the mean values were used. […] The reaction was started by addition of a cocktail of CYP probe substrates.
(§2) All 7 metabolites produced from the cocktail of CYP isoform-specific substrates were simultaneously determined by LC/MS/MS [25]. […] Quantification was performed by selected reaction monitoring (SRM) of the [M+H]^+ ion and the related product ion for each metabolite. […]

CYP2C8 = biological target: T2, CYP2C8 (Homo sapiens, UniProt P10632); assay: CYP2C8 amodiaquine N-deethylation inhibition, cocktail assay in pooled human liver microsomes; conditions: 2.5 μM amodiaquine, no inhibition at 200 μM of corydaline; for IC50 no preincubation, CYP2C8 amodiaquine N-deethylation: pooled human liver microsomes (H161)
T2 construct: using pooled human liver microsomes; tissue BD Gentest Co. H161; host or cells: pooled human liver microsomes
T2 sequence (P10632 1-490): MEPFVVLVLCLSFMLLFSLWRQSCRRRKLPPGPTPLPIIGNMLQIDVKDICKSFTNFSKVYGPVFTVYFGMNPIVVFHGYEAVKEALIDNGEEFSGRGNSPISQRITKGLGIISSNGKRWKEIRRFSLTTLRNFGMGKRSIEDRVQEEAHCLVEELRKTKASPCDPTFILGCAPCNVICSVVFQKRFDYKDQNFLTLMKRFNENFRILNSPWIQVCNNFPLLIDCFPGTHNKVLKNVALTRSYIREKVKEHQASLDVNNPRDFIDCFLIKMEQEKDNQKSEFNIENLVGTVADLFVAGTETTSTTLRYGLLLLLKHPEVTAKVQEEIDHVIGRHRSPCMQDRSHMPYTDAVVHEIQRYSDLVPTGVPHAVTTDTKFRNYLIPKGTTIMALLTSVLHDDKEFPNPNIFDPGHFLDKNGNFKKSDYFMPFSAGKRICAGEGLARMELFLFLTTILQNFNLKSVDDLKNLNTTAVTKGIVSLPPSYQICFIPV
Procedure: as §1, §2

T1 sequence (P08684 2-503): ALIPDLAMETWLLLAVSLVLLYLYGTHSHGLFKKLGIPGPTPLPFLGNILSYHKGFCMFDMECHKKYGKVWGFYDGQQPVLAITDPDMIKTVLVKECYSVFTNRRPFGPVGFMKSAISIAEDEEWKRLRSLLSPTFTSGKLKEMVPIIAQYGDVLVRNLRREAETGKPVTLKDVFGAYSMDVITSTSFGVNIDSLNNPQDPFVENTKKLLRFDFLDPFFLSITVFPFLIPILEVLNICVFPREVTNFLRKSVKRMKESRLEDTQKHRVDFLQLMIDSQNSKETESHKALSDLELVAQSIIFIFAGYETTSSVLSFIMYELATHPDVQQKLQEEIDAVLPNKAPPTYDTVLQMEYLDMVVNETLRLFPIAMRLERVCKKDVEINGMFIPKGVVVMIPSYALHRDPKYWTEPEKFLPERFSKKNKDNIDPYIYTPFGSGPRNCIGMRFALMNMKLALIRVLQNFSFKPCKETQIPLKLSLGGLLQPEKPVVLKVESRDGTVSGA

KI (inactivation) (CYP3A [1]; read-out: apparent Ki of inactivation, CYP3A midazolam hydroxylation): 30 µM
kinact (CYP3A [1]; read-out: maximal rate of inactivation (kinact), CYP3A midazolam hydroxylation (converted)): 0.00107 s⁻¹
IC50 no preincubation, CYP3A midazolam 1'-hydroxylation (CYP3A [2]; pooled human liver microsomes (H161)): negligible inhibition
IC50 (CYP3A [2]; pooled human liver microsomes (H161), read-out: IC50 no preincubation, CYP3A midazolam 1'-hydroxylation): > 200 µM
IC50 (CYP3A [2]; pre-incubated 30 min with NADPH, mean ± SD, n = 3, read-out: IC50 with preincubation, CYP3A midazolam 1'-hydroxylation): 67.4 ± 9.8 µM
IC50 no preincubation, CYP2C8 amodiaquine N-deethylation (CYP2C8): negligible inhibition
IC50 no preincubation, CYP2C8 amodiaquine N-deethylation (CYP2C8; listed as corydaline): No inhibition **
IC50 with preincubation, CYP2C8 amodiaquine N-deethylation (CYP2C8; pre-incubated 30 min with NADPH): No inhibition **
SMILES: COc1cc2c(cc1OC)C1C(C)c3ccc(OC)c(OC)c3CN1CC2 (centres unmarked) [Corydaline, 2,3,9,10-tetramethoxy-13-methyl-5,8,13,13a-tetrahydro-6H-isoquino[3,2-a]isoquinoline]
